In patent publication US9718825B2, “N-(4-(azaindazol-6-yl)-phenyl)-sulfonamides and their use as pharmaceuticals” (priority 2013, dated 2017):

The compounds below were run against recombinant human SGK-1 enzyme (Homo sapiens, UniProt O00141) (assay: Enzymatic activity assay: SGK-1 substrate peptide phosphorylation (Caliper lab-chip mobility shift)). Details: peptide substrate 1 μM, ATP 10 μM, 60 min at 37° C., read-out: IC50 values for inhibition of SGK-1 enzymatic activity.
Type: biochemical
Method: In one of the cellular assays, the SGK-1 dependent phosphorylation of glycogen synthase kinase 3beta (GSK3beta) in U2OS cells was measured, in another one, a functional electrophysiological assay, the SGK-1 dependent activation of epithelial Na^+ channel (ENaC) currents in A6 cell monolayers, and in another one chondrocyte hypertrophic differentiation in mouse chondrogenic ATDC5 cells.
A) Enzymatic Activity Assay
For the determination of the compound dose response, a 10 mM DMSO stock solution was diluted and tested in a ten-point, three-fold dilution series run in duplicate beginning at 30 μM final concentration. Data were analyzed using a four-parameter curve fit with a fixed minimum and maximum experimentally defined as the average positive and negative controls on each plate.

recombinant human SGK-1 enzyme, sequence (O00141 whole entry, looked up): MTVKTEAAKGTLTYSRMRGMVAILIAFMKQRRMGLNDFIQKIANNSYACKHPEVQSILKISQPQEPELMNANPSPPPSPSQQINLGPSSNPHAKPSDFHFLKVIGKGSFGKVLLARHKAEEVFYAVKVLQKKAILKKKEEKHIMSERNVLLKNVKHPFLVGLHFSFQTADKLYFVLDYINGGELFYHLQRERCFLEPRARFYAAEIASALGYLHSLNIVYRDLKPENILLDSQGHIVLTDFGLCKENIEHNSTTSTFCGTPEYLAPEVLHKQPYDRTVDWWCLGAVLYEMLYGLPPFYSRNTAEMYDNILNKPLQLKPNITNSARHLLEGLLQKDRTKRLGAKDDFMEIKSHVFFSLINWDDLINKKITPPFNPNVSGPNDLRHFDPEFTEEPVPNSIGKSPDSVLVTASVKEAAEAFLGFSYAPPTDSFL

SMILES | IC50 [nM]
COc1cc(Oc2nc(-c3ccc(NS(=O)(=O)c4cc(Cl)ccc4F)cc3)cc3[nH]nc(C)c23)ccn1 [Example 666] | 25
COc1ccc(Cl)c(S(=O)(=O)Nc2ccc(-c3cc4[nH]nc(C)c4c(OCCC(=O)N(C)C)n3)cc2)c1 [Example 689] | 13
Cc1n[nH]c2nc(-c3ccc(NS(=O)(=O)c4ccccc4F)cc3)nc(OC3CCN(C(C)C)CC3)c12 [Example 352] | 11
COCCc1nc(-c2ccc(NS(=O)(=O)c3cc(Cl)ccc3F)cc2)nc2[nH]nc(N)c12 [Example 525] | 25
COCCc1nc(-c2ccc(NS(=O)(=O)c3cc(F)c(F)cc3Cl)cc2)nc2[nH]nc(N)c12 [Example 510] | 1500
COc1ccc(Oc2nc(-c3ccc(NS(=O)(=O)c4ccccc4F)cc3)cc3[nH]nc(C)c23)cn1 [Example 624] | 37
CCOc1nc(-c2ccc(NS(=O)(=O)c3cc(OC)ccc3Cl)cc2)cc2[nH]nc(C)c12 [Example 675] | 15
Cc1ccc(C#N)c(S(=O)(=O)Nc2ccc(-c3nc(OCC(CO)CO)c4c(C)n[nH]c4n3)cc2)c1 [Example 371] | 3.9
COc1ccc(Oc2nc(-c3ccc(NS(=O)(=O)c4cc(C)ccc4F)cc3)cc3[nH]nc(C)c23)cn1 [Example 654] | 37
CC(C)COc1nc(-c2ccc(NS(=O)(=O)c3cc(F)c(F)cc3Cl)cc2)nc2[nH]nc(N)c12 [Example 325] | 1100
CCCOc1nc(-c2ccc(NS(=O)(=O)c3cc(F)c(F)cc3Cl)cc2)cc2[nH]nc(N)c12 [Example 605] | 23
COc1cc(Oc2nc(-c3ccc(NS(=O)(=O)c4cc(Cl)ccc4Cl)cc3)cc3[nH]nc(C)c23)ccn1 [Example 669] | 31
Cc1n[nH]c2nc(-c3ccc(NS(=O)(=O)c4ccccc4F)cc3)nc(OCC(CO)CO)c12 [Example 360] | 110
Cc1n[nH]c2cc(-c3ccc(NS(=O)(=O)c4cc(F)cc(F)c4Cl)cc3)nc(OC3CCN(C4CCC4)CC3)c12 [Example 638] | 11
COc1ccc(F)c(S(=O)(=O)Nc2ccc(-c3cc4[nH]nc(C)c4c(OCCC(=O)N(C)C)n3)cc2)c1 [Example 692] | 6.5
COCCN1CCC(Oc2nc(-c3ccc(NS(=O)(=O)c4cc(F)ccc4F)cc3)nc3[nH]nc(C)c23)CC1 [Example 407] | 11
Cc1ccc(F)c(S(=O)(=O)Nc2ccc(-c3nc(OCC(F)(F)CN)c4c(C)n[nH]c4n3)cc2)c1 [Example 364] | 6.5
COc1ccc(Cl)c(S(=O)(=O)Nc2ccc(-c3cc4[nH]nc(C)c4c(Oc4ccc(N(C)C)nc4)n3)cc2)c1 [Example 699] | 25
Cc1nc(-c2ccc(NS(=O)(=O)c3cccc(C#N)c3)cc2)nc2[nH]nc(N)c12 [Example 471] | 97
CCOc1nc(-c2ccc(NS(=O)(=O)c3cc(F)c(F)cc3F)cc2)cc2[nH]nc(N)c12 [Example 613] | 19
COCCc1nc(-c2ccc(NS(=O)(=O)c3ccc(F)cc3Cl)cc2)nc2[nH]nc(N)c12 [Example 507] | 1500
COc1ccc(Oc2nc(-c3ccc(NS(=O)(=O)c4cc(Cl)ccc4F)cc3)cc3[nH]nc(C)c23)cn1 [Example 634] | 23
Nc1n[nH]c2cc(-c3ccc(NS(=O)(=O)c4cc(F)cc(F)c4Cl)cc3)nc(C(F)(F)F)c12 [Example 576] | 430
Cc1ccc(F)c(S(=O)(=O)Nc2ccc(-c3nc(O)c4cn[nH]c4n3)cc2)c1 [Example 108] | 25
CCN1CCC(Oc2nc(-c3ccc(NS(=O)(=O)c4ccccc4F)cc3)nc3[nH]nc(C)c23)CC1 [Example 402] | 13
Cc1n[nH]c2nc(-c3ccc(NS(=O)(=O)c4cc(Cl)ccc4C#N)cc3)nc(OCC(C)C)c12 [Example 354] | 110

SMILES | IC50 [nM]
Nc1n[nH]c2cc(-c3ccc(NS(=O)(=O)c4cccc(Cl)c4F)cc3)nc(C(F)(F)F)c12 [Example 578] | 430
O=S(=O)(Nc1ccc(-c2nc(OC3CCNCC3(F)F)c3cn[nH]c3n2)cc1)c1cc(Cl)ccc1Cl (stereo not shown) [Example 247] | 6.5
Cc1n[nH]c2cc(-c3ccc(NS(=O)(=O)c4cc(F)ccc4F)cc3)nc(OCC3CN(C(C)C)C3)c12 [Example 592] | 2
N#Cc1ccc(Cl)cc1S(=O)(=O)Nc1ccc(-c2cc3[nH]nc(N)c3c(C(F)(F)F)n2)cc1 [Example 570] | 2
COc1ccc(F)c(S(=O)(=O)Nc2ccc(-c3cc4[nH]nc(C)c4c(Oc4ccc(OC)nc4)n3)cc2)c1 [Example 653] | 30
CCCOc1nc(-c2ccc(NS(=O)(=O)c3cc(Cl)ccc3Cl)cc2)cc2[nH]nc(N)c12 [Example 664] | 13
COc1ccc(Oc2nc(-c3ccc(NS(=O)(=O)c4cc(F)ccc4F)cc3)cc3[nH]nc(C)c23)cn1 [Example 622] | 37
O=S(=O)(Nc1ccc(-c2nc(C3CC3)c3cn[nH]c3n2)cc1)c1ccccc1F [Example 206] | 1100
CC(C)COc1nc(-c2ccc(NS(=O)(=O)c3ccc(F)cc3Cl)cc2)nc2[nH]nc(N)c12 [Example 318] | 950
Nc1n[nH]c2cc(-c3ccc(NS(=O)(=O)c4cc(F)cc(F)c4Cl)cc3)ncc12 [Example 557] | 96
COc1ccc(C#N)c(S(=O)(=O)Nc2ccc(-c3nc(OC4CCC(O)CC4)c4c(C)n[nH]c4n3)cc2)c1 (stereo not shown) [Example 130] | 13
Nc1n[nH]c2nc(-c3ccc(NS(=O)(=O)c4cc(Cl)ccc4Cl)cc3)nc(OCC3CC3)c12 [Example 355] | 13
Cc1n[nH]c2cc(-c3ccc(NS(=O)(=O)c4cc(Cl)ccc4F)cc3)nc(Oc3ccc(N(C)C)nc3)c12 [Example 694] | 25
COc1cc(Oc2nc(-c3ccc(NS(=O)(=O)c4cc(C)ccc4C#N)cc3)cc3[nH]nc(C)c23)ccn1 [Example 667] | 11
COc1ccc(Cl)c(S(=O)(=O)Nc2ccc(-c3cc4[nH]nc(C)c4c(Oc4ccnc(OC)c4)n3)cc2)c1 [Example 670] | 25
Cc1ccc(F)c(S(=O)(=O)Nc2ccc(-c3cc4[nH]nc(C)c4c(OCCC(=O)N(C)C)n3)cc2)c1 [Example 686] | 11
COc1ccc(Cl)c(S(=O)(=O)Nc2ccc(-c3cc4[nH]nc(C)c4c(Oc4ccc(OC)nc4)n3)cc2)c1 [Example 651] | 25
COCCc1nc(-c2ccc(NS(=O)(=O)c3ccccc3F)cc2)nc2[nH]nc(N)c12 [Example 512] | 1500
O=S(=O)(Nc1ccc(-c2nc(OCC(F)(F)F)c3cn[nH]c3n2)cc1)c1cc(Cl)ccc1Cl [Example 161] | 19
Cc1n[nH]c2cc(-c3ccc(NS(=O)(=O)c4cc(Cl)ccc4Cl)cc3)nc(OC3CC(C)(C)N(C)C(C)(C)C3)c12 [Example 620] | 3.9
CCOc1nc(-c2ccc(NS(=O)(=O)c3cc(Cl)ccc3F)cc2)cc2[nH]nc(C)c12 [Example 676] | 23
CCOc1nc(-c2ccc(NS(=O)(=O)c3cc(F)c(F)cc3Cl)cc2)cc2[nH]nc(N)c12 [Example 614] | 97
Cc1n[nH]c2cc(-c3ccc(NS(=O)(=O)c4cc(Cl)ccc4F)cc3)nc(OCCC(=O)N(C)C)c12 [Example 687] | 15
O=C(Nc1n[nH]c2nc(-c3ccc(NS(=O)(=O)c4cc(Cl)ccc4Cl)cc3)ncc12)c1cccc(Cl)c1Cl [Example 540] | 11
Cc1ccc(Cl)c(S(=O)(=O)Nc2ccc(-c3cc4[nH]nc(C)c4c(OC4CC(C)(C)NC(C)(C)C4)n3)cc2)c1 [Example 648] | 3.9

Same assay, conditions: read-out: IC50 values for inhibition of SGK-1 enzymatic activity, peptide substrate 1 μM, ATP 10 μM, 60 min at 37° C.

SMILES | IC50 [nM]
COc1nc(-c2ccc(NS(=O)(=O)c3cc(Cl)ccc3F)cc2)nc2[nH]nc(N)c12 [Example 7, N-[4-(3-Amino-4-methoxy-1H-pyrazolo[3,4-d]pyrimidin-6-yl)-phenyl]-5-chloro-2-fluoro-benzenesulfonamide] | < 1.5
Nc1n[nH]c2nc(-c3ccc(NS(=O)(=O)c4cc(Cl)c(F)cc4F)cc3)nc(C3CC3)c12 [Example 448, N-[4-(3-Amino-4-cyclopropyl-1H-pyrazolo[3,4-d]pyrimidin-6-yl)phenyl]-5-chloro-2,4-difluoro-benzenesulfonamide] | < 1.5
O=S(=O)(Nc1ccc(-c2nc(-c3cccnc3)c3cn[nH]c3n2)cc1)c1cc(Cl)ccc1Cl [Example 5, 2,5-Dichloro-N-[4-(4-pyridin-3-yl-1H-pyrazolo[3,4-d]pyrimidin-6-yl)-phenyl]-benzenesulfonamide] | < 1.2

These compounds were tested on SGK-1 dependent phosphorylation of GSK3beta in U2OS cells (assay: SGK-1 dependent phosphorylation of GSK3beta in U2OS cells overexpressing recombinant SGK-1 and GSK3beta). Details: Homo sapiens; U2OS cells, 6 h incubation, ratio of phosphorylated GSK3beta to total GSK3beta; read-out: IC50 values for inhibition of SGK-1 dependent phosphorylation of GSK3beta in U2OS cells.
Type: cell-based, human
Method: B) Determination of the Effect on SGK-1 Dependent Phosphorylation of GSK3beta in U2OS Cells
U2OS cells were cultured in 1:1 Dulbecco modified Eagle medium/Ham's F12 and 10% heat-inactivated fetal calf serum (FCS Gold) at 37° C., 7% CO2 and 95% relative humidity. […] Cell suspension mixed with BacMam viruses was seeded in 96 well pCLEAR plates (Greiner) at 3×10^4 cells per well in 250 μl medium. […] 1 μl of a solution of the test compound at 250×final concentration was added. Cells are incubated at 37° C., 7% CO2 and 95% relative humidity. […] After removing the fixation solution, cells were permeabilised by adding 200 μl PBT (0.2% Triton X-100 in PBS) per well for 5 min. After removing PBT, cells were blocked by adding 200 μl of blocking solution (1% bovine serum albumine in PBS) per well. Blocking solution was removed and 50 μl of primary antibody (rabbit anti-phospho-GSK-3beta (Ser9), and mouse anti-GSK-3beta) were added for 1 h. […] After washing the cells 3 times with PBS, 200 μl of PBS were added. Fluorescence signals were measured with the ImageXpress MICRO (Molecular Devices).

SMILES | IC50 [nM]
O=C(Nc1n[nH]c2nc(-c3ccc(NS(=O)(=O)c4cc(Cl)ccc4Cl)cc3)ncc12)C1CCNCC1 [Example 546, N-[6-[4-[(2,5-Dichlorophenyl)sulfonylamino]phenyl]-1H-pyrazolo[3,4-d]pyrimidin-3-yl]piperidine-4-carboxamide] | 1100
